# ChEMBL document CHEMBL3885881, “DrugMatrix”
# Species: Rattus norvegicus
# Assay: DrugMatrix - Regimen: Daily Repeat
# Assay type: toxicity, organism-based, Sprague-Dawley
# Design: regimen Daily Repeat, gender Male, age 6-8 weeks
# Conditions: in vivo, iv, vehicle 100 % SALINE; for ABSOLUTE BASOPHIL / ABSOLUTE EOSINOPHIL / ABSOLUTE LYMPHOCYTE / ABSOLUTE MONOCYTE / ABSOLUTE SEGMENTED NEUTROPHIL / BASOPHIL / EOSINOPHIL / ERYTHROCYTE COUNT / HEMATOCRIT / HEMOGLOBIN / LEUKOCYTE COUNT / LYMPHOCYTE / MEAN CORPUSCULAR HEMOGLOBIN / MEAN CORPUSCULAR HEMOGLOBIN CONCENTRATION / MEAN CORPUSCULAR VOLUME / MONOCYTE / NEUTROPHIL / NUCLEATED RED BLOOD CELLS / PLATELET COUNT: tissue Blood; for ALANINE AMINOTRANSFERASE / ALBUMIN / ALKALINE PHOSPHATASE / ASPARTATE AMINOTRANSFERASE / BLOOD UREA NITROGEN / CARBON DIOXIDE / CHLORIDE / CHOLESTEROL / CREATINE PHOSPHOKINASE / CREATININE / GLUCOSE / LACTATE DEHYDROGENASE / LIPASE / PHOSPHORUS / POTASSIUM / SODIUM / TOTAL BILIRUBIN / TOTAL PROTEIN / URIC ACID: tissue Plasma
# [1] = 10 mg/kg, 120 h, dose level Low, time 5 day
# [2] = 350 mg/kg, 72 h, dose level High, time 3 day
# [3] = 350 mg/kg, 120 h, dose level High, time 5 day
smiles,measurement,setting,value
O=C(O)P(=O)(O)O [FOSCARNET],ABSOLUTE BASOPHIL,[1],0 CELLS/uL
same,ABSOLUTE EOSINOPHIL,[1],341 CELLS/uL
same,ABSOLUTE LYMPHOCYTE,[1],13776.67 CELLS/uL
same,ABSOLUTE MONOCYTE,[1],353.33 CELLS/uL
same,ABSOLUTE SEGMENTED NEUTROPHIL,[1],929 CELLS/uL
same,BASOPHIL,[1],0%
same,EOSINOPHIL,[1],2%
same,ERYTHROCYTE COUNT,[1],5.8 x10E6/uL
same,HEMATOCRIT,[1],36.87%
same,HEMOGLOBIN,[1],13.6 G/DL
same,LEUKOCYTE COUNT,[1],15.4 x10E3/uL
same,LYMPHOCYTE,[1],89.67%
same,MEAN CORPUSCULAR HEMOGLOBIN,[1],23.47 pg
same,MEAN CORPUSCULAR HEMOGLOBIN CONCENTRATION,[1],36.93 G/DL
same,MEAN CORPUSCULAR VOLUME,[1],63.6 fL
same,MONOCYTE,[1],2.33%
same,NEUTROPHIL,[1],6%
same,NUCLEATED RED BLOOD CELLS,[1],0 /100WBC
same,PLATELET COUNT,[1],1343 x10E3/uL
same,ALANINE AMINOTRANSFERASE,[1],47.67 u/L
same,ALBUMIN,[1],4.3 G/DL
same,ALKALINE PHOSPHATASE,[1],297.67 u/L
same,ASPARTATE AMINOTRANSFERASE,[1],89 u/L
same,BLOOD UREA NITROGEN,[1],17.67 mg/dL
same,CARBON DIOXIDE,[1],23.67 mmol/L
same,CHLORIDE,[1],105 MEQ/L
same,CHOLESTEROL,[1],61.33 mg/dL
same,CREATINE PHOSPHOKINASE,[1],1049.33 u/L
same,CREATININE,[1],0.22 mg/dL
same,GLUCOSE,[1],193.67 mg/dL
same,LACTATE DEHYDROGENASE,[1],149 u/L
same,LIPASE,[1],8 u/L
same,PHOSPHORUS,[1],11.77 mg/dL
same,POTASSIUM,[1],5.32 MEQ/L
same,SODIUM,[1],145.43 MEQ/L
same,TOTAL BILIRUBIN,[1],0.23 mg/dL
same,TOTAL PROTEIN,[1],5.93 G/DL
same,URIC ACID,[1],1.67 mg/dL
same,ABSOLUTE BASOPHIL,[2],0 CELLS/uL
same,ABSOLUTE EOSINOPHIL,[2],0 CELLS/uL
same,ABSOLUTE LYMPHOCYTE,[2],12652 CELLS/uL
same,ABSOLUTE MONOCYTE,[2],325.67 CELLS/uL
same,ABSOLUTE SEGMENTED NEUTROPHIL,[2],1422.33 CELLS/uL
same,BASOPHIL,[2],0%
same,EOSINOPHIL,[2],0%
same,ERYTHROCYTE COUNT,[2],5.36 x10E6/uL
same,HEMATOCRIT,[2],33.47%
same,HEMOGLOBIN,[2],12.6 G/DL
same,LEUKOCYTE COUNT,[2],14.4 x10E3/uL
same,LYMPHOCYTE,[2],88%
same,MEAN CORPUSCULAR HEMOGLOBIN,[2],23.57 pg
same,MEAN CORPUSCULAR HEMOGLOBIN CONCENTRATION,[2],37.67 G/DL
same,MEAN CORPUSCULAR VOLUME,[2],62.47 fL
same,MONOCYTE,[2],2.33%
same,NEUTROPHIL,[2],9.67%
same,NUCLEATED RED BLOOD CELLS,[2],0 /100WBC
same,PLATELET COUNT,[2],1373.67 x10E3/uL
same,ALANINE AMINOTRANSFERASE,[2],45 u/L
same,ALBUMIN,[2],4.13 G/DL
same,ALKALINE PHOSPHATASE,[2],377 u/L
same,ASPARTATE AMINOTRANSFERASE,[2],95.33 u/L
same,BLOOD UREA NITROGEN,[2],15.67 mg/dL
same,CARBON DIOXIDE,[2],26 mmol/L
same,CHLORIDE,[2],102.67 MEQ/L
same,CHOLESTEROL,[2],71 mg/dL
same,CREATINE PHOSPHOKINASE,[2],483.67 u/L
same,CREATININE,[2],0.18 mg/dL
same,GLUCOSE,[2],145.33 mg/dL
same,LACTATE DEHYDROGENASE,[2],795 u/L
same,LIPASE,[2],8.33 u/L
same,PHOSPHORUS,[2],9.37 mg/dL
same,POTASSIUM,[2],6.24 MEQ/L
same,SODIUM,[2],142.23 MEQ/L
same,TOTAL BILIRUBIN,[2],0.2 mg/dL
same,TOTAL PROTEIN,[2],5.57 G/DL
same,URIC ACID,[2],1.27 mg/dL
same,ABSOLUTE BASOPHIL,[3],0 CELLS/uL
same,ABSOLUTE EOSINOPHIL,[3],0 CELLS/uL
same,ABSOLUTE LYMPHOCYTE,[3],12914 CELLS/uL
same,ABSOLUTE MONOCYTE,[3],384.67 CELLS/uL
same,ABSOLUTE SEGMENTED NEUTROPHIL,[3],1034.67 CELLS/uL
same,BASOPHIL,[3],0%
same,EOSINOPHIL,[3],0%
same,ERYTHROCYTE COUNT,[3],5.17 x10E6/uL
same,HEMATOCRIT,[3],33.93%
same,HEMOGLOBIN,[3],13.03 G/DL
same,LEUKOCYTE COUNT,[3],14.33 x10E3/uL
same,LYMPHOCYTE,[3],90.33%
same,MEAN CORPUSCULAR HEMOGLOBIN,[3],25.2 pg
same,MEAN CORPUSCULAR HEMOGLOBIN CONCENTRATION,[3],38.4 G/DL
same,MEAN CORPUSCULAR VOLUME,[3],65.67 fL
same,MONOCYTE,[3],2.67%
same,NEUTROPHIL,[3],7%
same,NUCLEATED RED BLOOD CELLS,[3],0 /100WBC
same,PLATELET COUNT,[3],1324.67 x10E3/uL
same,ALANINE AMINOTRANSFERASE,[3],45 u/L
same,ALBUMIN,[3],4.13 G/DL
same,ALKALINE PHOSPHATASE,[3],385.67 u/L
same,ASPARTATE AMINOTRANSFERASE,[3],74.67 u/L
same,BLOOD UREA NITROGEN,[3],19 mg/dL
same,CARBON DIOXIDE,[3],28.67 mmol/L
same,CHLORIDE,[3],103.67 MEQ/L
same,CHOLESTEROL,[3],69.33 mg/dL
same,CREATINE PHOSPHOKINASE,[3],209.67 u/L
same,CREATININE,[3],0.22 mg/dL
same,GLUCOSE,[3],170 mg/dL
same,LACTATE DEHYDROGENASE,[3],103.33 u/L
same,LIPASE,[3],9 u/L
same,PHOSPHORUS,[3],10.83 mg/dL
same,POTASSIUM,[3],6.68 MEQ/L
same,SODIUM,[3],143.67 MEQ/L
same,TOTAL BILIRUBIN,[3],0.23 mg/dL
same,TOTAL PROTEIN,[3],5.9 G/DL
same,URIC ACID,[3],1.53 mg/dL
